The values that follow come from paper PMC10551045 (Journal of the American Chemical Society, 2023).

One data set concerns GBM-A. The experiment in a line: cell killing, GBM-A patient-derived GBM CSC line. Format: cell-based, human. Conditions: for IC50: read-out: GBM-A IC50.
In a further data set the test system is GBM-F. Put plainly: cell killing, GBM-F patient-derived GBM CSC line. Format: cell-based, human. The conditions noted are these: for IC50: read-out: GBM-F IC50.
Data set [1] has as its system primary human astrocytes (HA). Put plainly: cytotoxicity in control primary human astrocytes. The class given is cell-based. The conditions noted are these: for IC50: read-out: HA IC50.
Data set [2] deals with WA09 human ES cell-derived neural progenitor cells (NPC). The experiment in a line: cytotoxicity in control neural progenitor cells. The conditions noted are these: for IC50: read-out: NPC IC50. The class given is cell-based.
Data set [3] relates to primary human lung fibroblasts (HLF). The experiment in a line: cytotoxicity in control primary human lung fibroblasts. Format: cell-based. Conditions: read-out: HLF IC50.
The subject of data set [4] is control neural cell types. The experiment in a line: cytotoxicity in control neural cell types. Conditions: read-out: IC50 in control neural cell types. The class given is cell-based, human.
The test system of another data set is U118MG. The experiment in a line: cytotoxicity in hypo-MGMT methylated cell line. Format: cell-based. The conditions noted are these: read-out: U118MG IC50.
For the next data set, the system named is LN229. The experiment in a line: cytotoxicity in hyper-MGMT methylated cell line. The class given is cell-based.
The test system of another data set is U87-EGFRvIII cells. Put plainly: Cell-titer glo cell viability in U87-EGFRvIII cells after shRNA knockdown. The class given is cell-based. The conditions noted are these: for cell viability on loss of RIPK2 / sensitivity following shRNA-mediated RIPK1 knockdown: U87-EGFRvIII; for cell viability on loss of RIPK2: RIPK2 shRNA vs control, YM155 20 nM, aYM155 160 nM; for sensitivity following shRNA-mediated RIPK1 knockdown: induced tumor cell death; for IC50: read-out: 24-hour IC50 value.

The subject of a further data set is HT-1080 cells. Put plainly: Cell-titer glo cell viability in HT-1080 cells after shRNA RIPK2 knockdown. The class given is cell-based. The conditions noted are these: HT-1080, RIPK2 shRNA vs control, 24 hours; YM155 4 nM, aYM155 40 nM.
A further data set concerns Casp-3/7. Put plainly: Caspase-Glo 3/7 assay in HT-1080 cells. Conditions: for Casp3/7 activation on SLC35F2 shRNA knockdown: HT-1080; for Casp-3/7 activation in RIPK2 shRNA knockdown cells vs non-targeting control: HT-1080, 8 hours; for Casp-3/7 activation: HT-1080, 8 hours of treatment. The class given is cell-based.
Data set [5] can be described thus: two-week mouse tolerability study. The class given is in vivo. Conditions: oral, 1.0 and 5.0 mg/kg B.I.D., two weeks, naïve animals.
The target in the next data set is hERG channel (Homo sapiens, UniProt Q12809). Put plainly: hERG channel inhibition assay. Format: biochemical. The conditions noted are these: at 3 μM, highest tested concentration.
Data set [6] relates to U87EGFRvIII intracranial xenografts. Put plainly: orthotopic intracranial GBM xenograft, tumor growth by FMT. The class given is in vivo, athymic nude mice. Conditions: oral, 5mg/kg and 15 mg/kg, B.I.D.
The test system of another data set is survivin mRNA. Format: in vivo, athymic nude mice. Conditions: 1 hour after last dose of 9-day regimen.
For data set [7], the system named is GBM CSCs and non-diseased cells. Put plainly: MS-based metabolite identification of aYM155 activation in cells. The conditions noted are these: 100 nM, 24 hours. The class given is cell-based, human.
Data set [8] is described as follows: brain tissue distribution pharmacokinetic study. Conditions: 10 mg/kg, P.O., CD-1 mice.
The subject of data set [9] is HT-1080 fibrosarcoma cells. The experiment in a line: cytotoxicity in HT-1080 fibrosarcoma cells. The class given is cell-based. The conditions noted are these: Homo sapiens, HT-1080, read-out: HT-1080 IC50.
The test system of data set [10] is Survivin. The experiment in a line: Western blot of survivin in U87-EGFRvIII cells after shRNA RIPK2 knockdown. Format: cell-based. Conditions: U87MG stably expressing EGFRvIII, 100 nM, 24 hours.
Data set [11] has as its system Survivin. Put plainly: Western blot of survivin in HT-1080 cells after shRNA RIPK2 knockdown. Format: cell-based. Conditions: 24 hours. (In general: Immunoblotting shows a protein as a band on a membrane.)
The subject of another data set is Casp-1. The experiment in a line: Casp-1 activation in cells. Format: cell-based. Conditions: HT-1080, EGFRvIII amplified U87MG cells and GBM CSCs.
Another data set deals with IκBα phosphorylation. Put plainly: IκBα phosphorylation after NOD2 stimulation with L-18 MDP. Format: cell-based. Conditions: U87EGFRvIII cells, pretreatment 100nM, L-18 MDP stimulation.
In data set [12] the target is T1, recombinant human full-length RIPK2 (Homo sapiens, UniProt O43353). Put plainly: in vitro competitive binding, UV-dependent labeling of RIPK2 by cRIPGBM-PAP.
The target in data set [13] is T1, recombinant human full-length RIPK2. Conditions: read-out: apparent Kd for RIPK2; cited from earlier work.

What is called IC50 is the concentration at which inhibition is half-maximal.

Where two headings read alike, the source gives them in different places.

T1 sequence (O43353 whole entry): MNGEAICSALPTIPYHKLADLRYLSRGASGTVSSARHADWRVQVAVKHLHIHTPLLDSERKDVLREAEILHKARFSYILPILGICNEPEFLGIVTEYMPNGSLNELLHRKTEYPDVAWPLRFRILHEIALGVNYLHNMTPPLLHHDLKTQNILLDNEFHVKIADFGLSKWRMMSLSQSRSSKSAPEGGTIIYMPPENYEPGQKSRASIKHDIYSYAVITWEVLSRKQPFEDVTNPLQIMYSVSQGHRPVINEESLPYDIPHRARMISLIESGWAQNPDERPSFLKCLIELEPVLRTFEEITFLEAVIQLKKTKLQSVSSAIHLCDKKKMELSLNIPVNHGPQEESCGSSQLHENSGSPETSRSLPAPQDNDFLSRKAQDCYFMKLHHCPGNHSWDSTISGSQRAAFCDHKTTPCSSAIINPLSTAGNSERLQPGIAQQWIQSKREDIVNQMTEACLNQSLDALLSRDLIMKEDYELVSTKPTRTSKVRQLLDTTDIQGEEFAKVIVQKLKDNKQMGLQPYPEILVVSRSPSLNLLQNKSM
Chain of hERG channel (Q12809 whole entry): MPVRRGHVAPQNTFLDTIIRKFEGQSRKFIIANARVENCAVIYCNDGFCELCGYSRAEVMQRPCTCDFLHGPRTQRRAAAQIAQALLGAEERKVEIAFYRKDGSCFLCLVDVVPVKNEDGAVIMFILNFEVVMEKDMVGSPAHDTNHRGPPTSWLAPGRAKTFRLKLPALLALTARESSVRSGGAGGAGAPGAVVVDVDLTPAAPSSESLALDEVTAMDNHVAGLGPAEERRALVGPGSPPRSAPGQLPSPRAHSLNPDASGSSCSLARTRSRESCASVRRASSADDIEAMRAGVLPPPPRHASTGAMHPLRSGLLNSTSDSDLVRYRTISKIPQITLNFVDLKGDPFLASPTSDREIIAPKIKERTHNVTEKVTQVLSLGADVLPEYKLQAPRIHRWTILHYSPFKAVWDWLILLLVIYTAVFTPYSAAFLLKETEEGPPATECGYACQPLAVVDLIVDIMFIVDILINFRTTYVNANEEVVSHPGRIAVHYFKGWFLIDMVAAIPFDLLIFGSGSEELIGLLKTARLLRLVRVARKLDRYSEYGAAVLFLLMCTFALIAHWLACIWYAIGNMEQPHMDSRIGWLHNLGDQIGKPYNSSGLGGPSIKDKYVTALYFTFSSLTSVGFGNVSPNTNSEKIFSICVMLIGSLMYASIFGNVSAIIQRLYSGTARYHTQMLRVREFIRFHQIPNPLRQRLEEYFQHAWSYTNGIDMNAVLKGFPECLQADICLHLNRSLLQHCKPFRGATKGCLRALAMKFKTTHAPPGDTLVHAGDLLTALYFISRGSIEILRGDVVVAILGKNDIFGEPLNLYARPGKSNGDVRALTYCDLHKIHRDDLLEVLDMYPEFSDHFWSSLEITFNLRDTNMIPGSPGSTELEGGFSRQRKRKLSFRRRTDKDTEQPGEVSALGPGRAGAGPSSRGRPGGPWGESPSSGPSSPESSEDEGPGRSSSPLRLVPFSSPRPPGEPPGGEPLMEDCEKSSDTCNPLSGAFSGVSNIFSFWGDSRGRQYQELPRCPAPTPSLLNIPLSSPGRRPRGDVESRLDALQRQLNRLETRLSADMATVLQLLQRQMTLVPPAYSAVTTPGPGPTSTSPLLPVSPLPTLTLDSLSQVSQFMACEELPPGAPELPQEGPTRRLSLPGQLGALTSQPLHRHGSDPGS

In the case of `Cc1n(Cc2ccc(F)cc2)c2c([n+]1Cc1ccccc1)C(=O)c1ccccc1C2=O` [cRIPGBM], the IC50 in the data set with GBM-A (cell killing, 72 hours) turned out to be 27 nM; with GBM-F (cell killing), 70 nM.
With `COCCN(C(C)=O)C1=C(NCc2cnccn2)C(=O)c2ccccc2C1=O` [aYM155], the results for the “fold less potent compared to YM155” value (in the data set with GBM-A (GBM-A); in data set [1] (HA); in [2] (NPC)) were 2.2 fold, 12 fold and 19 fold, respectively. Besides, the IC50 was 10 nM in the data set with GBM-A (cell killing, 72 hours); 0.65 nM in the data set with GBM-F (cell killing, 72 hours); 62 nM in data set [1] (control cell type, 72 hours); 97 nM in data set [2] (control cell type, 72 hours); 2000 nM in data set [3] (control cell type); 62 to 97 nM in data set [4] (HA and NPC). The IC50 in the data set with U118MG (hypo-MGMT methylated) turned out to be 11 nM; in the data set with LN229 (read-out: LN229 IC50, hyper-MGMT methylated), 12 nM; with U87-EGFRvIII cells (U87-EGFRvIII cells, 24 hours), 160 nM. For the same molecule, the “potency compared to YM155” value in the data set on GBM-F (GBM-F) is reported as “~ equivalent”. Besides, the “cell viability on loss of RIPK2” value in the data set with U87-EGFRvIII cells (24 hours) and in the data set on HT-1080 cells was “significant rescue of cell viability” throughout. In addition, in the data set with U87-EGFRvIII cells, the “sensitivity following shRNA-mediated RIPK1 knockdown” value is reported as “No significant differences in sensitivity”. The “Casp3/7 activation on SLC35F2 shRNA knockdown” value with Casp-3/7 is recorded as “ablated”. The “Casp-3/7 activation in RIPK2 shRNA knockdown cells vs non-targeting control” value with Casp-3/7 is “significantly reduced”. Further, the Casp-3/7 activation result with Casp-3/7 is recorded as “Casp-3/7 activation was observed”. In addition, the “tolerability (weight loss and behavioral observations)” value in data set [5] is given as “well tolerated”. For the same molecule, the hERG channel inhibition on hERG channel is given as less than 20%. The “tumor growth by FMT imaging” value in [6] is recorded as “significant inhibition of tumor growth”. Moreover, in the data set with survivin mRNA (5 and 15 mg/kg B.I.D.), the “survivin expression levels in human tumor tissue” value is “significantly decrease survivin expression levels”. Also, the “survivin expression in normal brain tissue” value in the data set on survivin mRNA was “no effect”. For the same molecule, the “rates of conversion to YM155 in GBM CSC populations compared to non-transformed control cell types” value in data set [7] was “significantly higher”. In addition, the “brain Cmax” value in data set [8] stood at 32 nM. In [8], the brain/plasma concentration ratio stood at 0.56.
In the case of `COCCn1c2c([n+](Cc3cnccn3)c1C)C(=O)c1ccccc1C2=O` [YM155, sepantronium bromide], the IC50 in the data set with GBM-A (Homo sapiens, 72 h) stood at 4.5 nM; in the data set on GBM-F (Homo sapiens, 72 h), 0.78 nM; in [1] (Homo sapiens, Astrocyte, 72 h), 5.1 nM; in data set [2] (Homo sapiens, 72 h), 5 nM; in [3] (Homo sapiens, Fibroblast) it was 92 nM; in data set [4] (Homo sapiens), 5 nM. Also, the IC50 in the data set on U118MG (Homo sapiens, U-118-MG) worked out at 3.7 nM; in the data set on LN229 (Homo sapiens, LN-229, read-out: LN229 IC50), 2.8 nM; in data set [9] it was 3.1 nM; with U87-EGFRvIII cells (24 h) it was 20 nM. Besides, the “cell viability on loss of RIPK2” value in the data set with U87-EGFRvIII cells (24 hours) and in the data set with HT-1080 cells was “significant rescue of cell viability” each time. In the data set with U87-EGFRvIII cells, the “sensitivity following shRNA-mediated RIPK1 knockdown” value is recorded as “No significant differences in sensitivity”. Also, the “survivin expression on RIPK2 knockdown” value in the data set with Survivin [10] was “significant rescue of survivin expression”. In the data set with Survivin [11] (HT-1080 RIPK2 shRNA cells), the “concentration required to significantly impact survivin protein levels” value turned out to be 100 nM. Moreover, in the data set on Survivin [11] (HT-1080 non-targeting shRNA control cells), the “concentration giving significant reduction of survivin protein levels” value stood at 10 nM. In the data set on Casp-3/7, the “Casp3/7 activation on SLC35F2 shRNA knockdown” value is “ablated”. Further, the “Casp-3/7 activation in RIPK2 shRNA knockdown cells vs non-targeting control” value in the data set with Casp-3/7 was “significantly reduced”. For the same molecule, the Casp-3/7 activation entry in the data set with Casp-3/7 is listed as “Casp-3/7 activation was observed”. Also, the Casp-1 activation result in the data set with Casp-1 is recorded as “time dependent activation of Casp-1”. For the same molecule, in the data set with IκBα phosphorylation, the “IKK activation (IκBα phosphorylation)” value was “reduced IKK activation”. Besides, the “potency of inhibition of cRIPGBM-PAP RIPK2 labeling relative to cRIPGBM” value in data set [12] was ~ 10 fold. Besides, in [12] (cRIPGBM-PAP 1 μM, at concentrations as low as 30nM), the “inhibition of UV-dependent covalent labeling of RIPK2 by cRIPGBM-PAP” value is recorded as “at least 50%”. Also, the brain exposure entry in data set [8] is “no brain exposure above limits of quantification”.
On to `Cc1n(Cc2ccc(N=[N+]=[N-])cc2)c2c([n+]1CCOCCOCCNC(=O)CCCC[C@@H]1SC[C@@H]3NC(=O)N[C@@H]31)C(=O)c1ccccc1C2=O` [cRIPGBM-PAP], for which, in [13], the Kd was 2300 nM.
On to `CC(=O)N(Cc1ccc(F)cc1)C1=C(NCc2ccccc2)C(=O)c2ccccc2C1=O` [RIPGBM], for which the IC50 turned out to be 200 nM with GBM-A (cell killing, 72 hours) and 400 nM with GBM-F (cell killing).
